“And” between values parts separate entries of the source, which are not always exact repeats. Equal entries are not always repeated.
What was measured:
[1] = system: Acyl CoA-Cholesterol Acyltransferase (ACAT); experiment: ACAT enzyme assay; type: biochemical, rat; conditions: 10 μM compound, 1% DMSO
From the text: Acyl CoA-Cholesterol Acyltransferase (ACAT) converts cholesterol to cholesteryl esters and is involved in the development of artherioscerosis.
(§1) The procedures used were based on known assays: ACAT (from rat; Ref: Largis et al (1989), J. Lipid. Res., vol 30, 681-689), COX-2 (human; Ref: Riendeau et al (1997), Can. J. Physiol. Pharmacol., vol 75, 1088-1095 and Warner et al (1999), Pro. Natl. Acad. Sci. USA, vol 96, 7563-7568), 5-LO (human; Ref: Carter et al (1991), J. Pharmacol. Exp. Ther., vol 256, no 3, 929-937, and Safayhi et al (2000), Planta Medica, vol 66, 110-113), PBR (from rat; Le Fur et al (1983), Life Sci. USA, vol 33, 449-457), CysLT1 (human; Martin et al (2001), Biochem. Pharmacol., vol 62, no 9, 1193-1200) and CBR (from rat; Damm et al (1978), Res. Comm. Chem. Pathol. Pharmacol., vol 22, 597-600 and Speth et al (1979), Life Sci., vol 24, 351-357).
(§2) Binding assays were done for each of Compounds 1-12 and 46 using ACAT, COX-2, 5-LO, PBR and CysLT1 enzymes. The procedures used are based on the respective references mentioned above and the conditions are summarized in Tables 16 (enzyme assays) and 17 (radioligand receptor assays).
(§3) Binding Assays were done at constant concentration of the compound, in 1% DMSO as vehicle, and are specified below each enzyme/receptor type in Table 18. The results are expressed in Table 18 as percentage inhibition. Significance was obtained when a result was ≧50% binding or inhibition (underlined).

[2] = biological target: T1, peripheral benzodiazepine receptor (PBR) (Rattus norvegicus, UniProt P16257); experiment: PBR radioligand binding assay ([3H]PK-11195, rat heart); conditions: for inhibition at 1 µM: 1 μM compound, 1% DMSO, read-out: Percentage of inhibition or binding activity, PBR (1 μM)
T1 construct: CBR and PBR were obtained from rat brain and heart membrane-fractions, respectively; from tissue; host or cells: Wistar rat heart membranes
From the text: as §1, §2, §3
As Compound 1 was isolated from structural prediction through genetic analysis and activity identified through in vitro cytotoxic assays, its molecular target(s) were unknown at the time of discovery. Based on the structural characteristics of ECO-4601, we first investigated its binding affinity to the central (GABAA; CBR;) and peripheral (PBR) benzodiazepine receptors. The effect of ECO-4601 on CBR (GABAA) and PBR was initially evaluated in a radioligand-binding assay at MDS Pharma Services (Taipei, Tawain). CBR and PBR were obtained from rat brain and heart membrane-fractions, respectively. Displacement assays were done in the presence of 1 nM [^3H]-Flunitrazepam (CBR; GABAA) or 0.3 nM of [^3H]-PK11195 (PBR). ECO-4601 was tested at 0.01, 0.1, 0.5, 1, 5 and 10 μM. Non-specific binding was estimated in the presence of 10 μM diazepam (CBR) or 100 μM dipyrimadole (PBR) and assays were performed according to previous described methods (Damm et al Res Commun Chem Pathol Pharmacol 22, pp 597-600; Le Fur et al (1983) Life Science 33, pp 449-57). […] This contrats with current specific PBR ligands, which bind the PBR with nanomolar affinity yet their effect on cell proliferation, is in the micromolar range.

SRBC = experiment: Hemolysis of SRBC; type: cell-based; conditions: concentration necessary to achieve 50% hemolysis of SRBC
Cyclooxygenase-2 (COX-2) = biological target: T2, Cyclooxygenase-2 (COX-2) (Homo sapiens, UniProt P35354); experiment: COX-2 enzyme assay; type: biochemical; conditions: 4 μM compound, 1% DMSO; read-out: Percentage of inhibition or binding activity, COX-2 (4 μM)
T2 construct: host or cells: insect Sf21 cells
T2 sequence (P35354 18-604): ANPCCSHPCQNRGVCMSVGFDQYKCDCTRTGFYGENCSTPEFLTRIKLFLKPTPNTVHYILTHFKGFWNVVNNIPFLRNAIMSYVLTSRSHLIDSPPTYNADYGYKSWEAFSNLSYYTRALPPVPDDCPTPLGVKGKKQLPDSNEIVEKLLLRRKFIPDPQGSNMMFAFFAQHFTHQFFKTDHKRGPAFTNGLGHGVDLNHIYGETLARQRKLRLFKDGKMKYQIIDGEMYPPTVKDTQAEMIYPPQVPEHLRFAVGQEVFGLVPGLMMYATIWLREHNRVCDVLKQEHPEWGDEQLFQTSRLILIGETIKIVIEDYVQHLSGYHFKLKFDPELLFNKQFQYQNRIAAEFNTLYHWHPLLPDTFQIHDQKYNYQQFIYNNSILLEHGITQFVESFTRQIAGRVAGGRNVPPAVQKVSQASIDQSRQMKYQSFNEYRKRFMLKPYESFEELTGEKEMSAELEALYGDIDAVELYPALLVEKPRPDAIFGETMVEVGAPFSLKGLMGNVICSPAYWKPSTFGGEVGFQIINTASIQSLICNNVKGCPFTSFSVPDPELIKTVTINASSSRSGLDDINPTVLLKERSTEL
From the text: Cyclooxygenase-2 (COX-2) enzyme is made only in response to injury or infection. It produces prostaglandins involved in inflammation and the immune response. Elevated levels of COX-2 in the body have been linked to cancer.
as §1, §2, §3

[3] = biological target: T3, Leukotriene, Cysteinyl (CysLT1) receptor (Homo sapiens, UniProt Q9Y271); experiment: CysLT1 radioligand binding assay; conditions: 4 μM compound, 1% DMSO; read-out: Percentage of inhibition or binding activity, CysLT1 (4 μM)
T3 construct: expressed in transfected cells; host or cells: CHO-K1 cells
T3 sequence (Q9Y271 1-337): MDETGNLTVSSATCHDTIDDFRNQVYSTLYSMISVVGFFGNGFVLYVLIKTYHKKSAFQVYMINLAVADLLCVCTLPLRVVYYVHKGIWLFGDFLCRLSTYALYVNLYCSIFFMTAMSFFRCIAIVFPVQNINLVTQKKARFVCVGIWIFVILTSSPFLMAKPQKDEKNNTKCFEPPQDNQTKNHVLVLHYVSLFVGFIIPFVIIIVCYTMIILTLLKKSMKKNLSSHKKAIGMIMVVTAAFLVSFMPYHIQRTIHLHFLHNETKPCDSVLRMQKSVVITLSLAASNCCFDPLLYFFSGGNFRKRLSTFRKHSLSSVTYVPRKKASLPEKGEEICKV
From the text: Leukotriene, Cysteinyl (CysLT1) is involved in inflammation and CysLT1-selective antagonists are used as treatment for bronchial asthma.
as §1, §2, §3

Row | Percentage of inhibition or binding activity, ACAT (10 μM) [1] [%] | inhibition at 1 µM [2] [%] | inhibition at 4 µM (Cyclooxygenase-2 (COX-2)) [%] | inhibition at 4 µM [3] [%] | Structure (SMILES) | Hemolysis (ED50 μg/mL) (SRBC) [µg/mL] | IC50 ([2]; multiple dilutions, 0.3 nM [3H]-PK11195, rat heart, read-out: PBR IC50 (binding affinity)) | Ki ([2]; multiple dilutions, read-out: PBR inhibition constant (Ki)) [nM]
1 | 65 | 92 | 78 | 64 | COc1cccc2c1Nc1c(O)cc(O)cc1N(C/C=C(\C)CC/C=C(\C)CCC=C(C)C)C2=O [Compound 4, 10-farnesyl-6,8-dihydroxy-4-methoxy-5,10-dihydro-dibenzo[b,e][1,4]diazepin-11-one] | >64 |  | 
2 | 40 | 55 | 19 | 13 | COc1cc(OC)c2c(c1)N(CC=C(C)CCC=C(C)CCC=C(C)C)C(=O)c1cccc(OC)c1N2 [Compound 8, 10-farnesyl-4,6,8-trimethoxy-5,10-dihydro-dibenzo[b,e][1,4]diazepin-11-one] |  |  | 
3 | 54 | 75 | 45 | 24 | COc1cc(OC)c2c(c1)N(C/C=C(\C)CC/C=C(\C)CCC=C(C)C)C(=O)c1cccc(O)c1N2 [Compound 6, 10-farnesyl-4-hydroxy-6,8-dimethoxy-5,10-dihydro-dibenzo[b,e][1,4]diazepin-11-one] | >64 |  | 
4 | 63 | 11 | 76 | 59 | CC(C)=CCC/C(C)=C/CC/C(C)=C/CN1C(=O)c2cccc(O)c2N(Cc2ccccc2)c2c(O)cc(O)cc21 [Compound 3, 5-benzyl-10-farnesyl-4,6,8-trihydroxy-5,10-dihydro-dibenzo[b,e][1,4]diazepin-11-one] | >64 |  | 
5 | 8 | -1 | 95 | 71 | CC(C)CCCC(C)CCCC(C)CCN1C(=O)c2cccc(O)c2Nc2c(O)cc(O)cc21 (stereo not drawn) [Compound 46, 10-(3,7,11-trimethyldodecyl)-4,6,8-trihydroxy-5,10-dihydro-dibenzo[b,e][1,4]diazepin-11-one] | 13.9 |  | 
6 | 95 | 65 | 26 | 15 | COc1cccc2c1Nc1c(OC)cc(O)cc1N(CC=C(C)CCC=C(C)CCC=C(C)C)C2=O [Compound 7, 10-farnesyl-8-hydroxy-4,6-dimethoxy-5,10-dihydro-dibenzo[b,e][1,4]diazepin-11-one] | >64 |  | 
7 | 60 | 68 | 63 | 72 | COc1cc(O)cc2c1Nc1c(O)cccc1C(=O)N2C/C=C(\C)CC/C=C(\C)CCC=C(C)C [Compound 5, 10-farnesyl-4,8-dihydroxy-6-methoxy-5,10-dihydro-dibenzo[b,e][1,4]diazepin-11-one] | >64 |  | 

Second part, the compound before the results:

Row | Structure (SMILES) | Percentage of inhibition or binding activity, ACAT (10 μM) [1] [%] | inhibition at 1 µM [2] [%] | inhibition at 4 µM (Cyclooxygenase-2 (COX-2)) [%] | inhibition at 4 µM [3] [%] | Hemolysis (ED50 μg/mL) (SRBC) [µg/mL] | IC50 ([2]; multiple dilutions, 0.3 nM [3H]-PK11195, rat heart, read-out: PBR IC50 (binding affinity)) | Ki ([2]; multiple dilutions, read-out: PBR inhibition constant (Ki)) [nM]
8 | CC(=O)Oc1cc(OC(C)=O)c2c(c1)N(CC=C(C)CCC=C(C)CCC=C(C)C)C(=O)c1cccc(O)c1N2 [Compound 9, 6,8-diacetoxy-10-farnesyl-4-hydroxy-5,10-dihydro-dibenzo[b,e][1,4]diazepin-11-one] | 77 | 32 | 44 | 70 | >64 |  | 
9 | CC(C)=CCC/C(C)=C/CC/C(C)=C/CN1C(=O)c2cccc(O)c2Nc2c(O)cc(O)cc21 [Compound 1, 10-farnesyl-4,6,8-trihydroxy-5,10-dihydrodibenzo[b,e][1,4]diazepin-11-one] | 90 | 80 | 96 | 92 | 7.6 | 291 nM and ~300 nM | 257
10 | CC(=O)Oc1cccc2c1Nc1c(OC(C)=O)cc(O)cc1N(CC=C(C)CCC=C(C)CCC=C(C)C)C2=O [Compound 10, 4,6-diacetoxy-10-farnesyl-8-hydroxy-5,10-dihydro-dibenzo[b,e][1,4]diazepin-11-one] | 90 | 86 | 45 | 67 | >64 |  | 
11 | CC(=O)Oc1cc(O)c2c(c1)N(CC=C(C)CCC=C(C)CCC=C(C)C)C(=O)c1cccc(OC(C)=O)c1N2 [Compound 11, 4,8-diacetoxy-10-farnesyl-6-hydroxy-5,10-dihydro-dibenzo[b,e][1,4]diazepin-11-one] | 71 | 39 | 57 | 74 | 9.8 |  | 
12 | CC(C)=CCC/C(C)=C/CC/C(C)=C/CN1C(=O)c2cccc(O)c2N(C)c2c(O)cc(O)cc21 [Compound 2, 10-farnesyl-4,6,8-trihydroxy-5-methyl-5,10-dihydro-dibenzo[b,e][1,4]diazepin-11-one] | 51 | 65 | 92 | 75 | 5.12 |  | 
13 | CC(=O)Oc1cc(OC(C)=O)c2c(c1)N(CC=C(C)CCC=C(C)CCC=C(C)C)C(=O)c1cccc(OC(C)=O)c1N2 [Compound 12, 4,6,8-triacetoxy-10-farnesyl-5,10-dihydro-dibenzo[b,e][1,4]diazepin-11-one] | 83 | 39 | 30 | 33 | >64 |  | 
